Results as given in PubChem BioAssay AID1259407 (Chemical Carcinogenesis Research Information System (CCRIS), 2018).
Calls of active or inactive are those of the source. No rule for the calls is given here.

Test system: CCRIS mutagenicity, Ames/micronucleus/aberration tests
Test: CCRIS mutagenicity studies
[1] = Test System: AMES SALMONELLA TYPHIMURIUM, Strain/Indicator: TA98, Metabolic Activation: NONE, Method: PREINCUBATION
[2] = Test System: AMES SALMONELLA TYPHIMURIUM, Strain/Indicator: TA98, Metabolic Activation: NONE, Method: STANDARD PLATE
[3] = Test System: AMES SALMONELLA TYPHIMURIUM, Strain/Indicator: TA100, Metabolic Activation: NONE, Method: PREINCUBATION
[4] = Test System: AMES SALMONELLA TYPHIMURIUM, Strain/Indicator: TA100, Metabolic Activation: NONE, Method: STANDARD PLATE
[5] = Test System: AMES SALMONELLA TYPHIMURIUM, Strain/Indicator: TA1535, Metabolic Activation: NONE, Method: PREINCUBATION

## Cl/C=C/C[N+]12CN3CN(CN(C3)C1)C2
Test System: AMES SALMONELLA TYPHIMURIUM, Strain/Indicator: TA97, Metabolic Activation: HAMSTER, LIVER, S-9, AROCLOR 1254 (5, 10 OR 30%), Method: PREINCUBATION
  mutagenic call: inactive; negative
Test System: AMES SALMONELLA TYPHIMURIUM, Strain/Indicator: TA97, Metabolic Activation: NONE, Method: PREINCUBATION
  mutagenic call: inactive; negative
Test System: AMES SALMONELLA TYPHIMURIUM, Strain/Indicator: TA97, Metabolic Activation: RAT, LIVER, S-9, AROCLOR 1254 (5, 10 OR 30%), Method: PREINCUBATION
  mutagenic call: inactive; negative
Test System: AMES SALMONELLA TYPHIMURIUM, Strain/Indicator: TA98, Metabolic Activation: HAMSTER, LIVER, S-9, AROCLOR 1254 (5 OR 30%), Method: PREINCUBATION
  mutagenic call: inactive; negative
Test System: AMES SALMONELLA TYPHIMURIUM, Strain/Indicator: TA98, Metabolic Activation: HAMSTER, LIVER, S-9, AROCLOR 1254 (10%), Method: PREINCUBATION
  mutagenic call: inactive; negative
Test System: AMES SALMONELLA TYPHIMURIUM, Strain/Indicator: TA98, Metabolic Activation: HAMSTER, LIVER, S-9, AROCLOR 1254, Method: STANDARD PLATE
  mutagenic call: inactive; negative
[1]
  mutagenic call: active; positive
[2]
  mutagenic call: inactive; negative
Test System: AMES SALMONELLA TYPHIMURIUM, Strain/Indicator: TA98, Metabolic Activation: RAT, LIVER, S-9, AROCLOR 1254 (5 OR 30%), Method: PREINCUBATION
  mutagenic call: inactive; negative
Test System: AMES SALMONELLA TYPHIMURIUM, Strain/Indicator: TA98, Metabolic Activation: RAT, LIVER, S-9, AROCLOR 1254 (10%), Method: PREINCUBATION
  mutagenic call: inactive; negative
Test System: AMES SALMONELLA TYPHIMURIUM, Strain/Indicator: TA98, Metabolic Activation: RAT, LIVER, S-9, AROCLOR 1254, Method: STANDARD PLATE
  mutagenic call: inactive; negative
Test System: AMES SALMONELLA TYPHIMURIUM, Strain/Indicator: TA100, Metabolic Activation: HAMSTER, LIVER, S-9, AROCLOR 1254 (5 OR 30%), Method: PREINCUBATION
  mutagenic call: inactive; negative
Test System: AMES SALMONELLA TYPHIMURIUM, Strain/Indicator: TA100, Metabolic Activation: HAMSTER, LIVER, S-9, AROCLOR 1254 (10%), Method: PREINCUBATION
  mutagenic call: inactive; negative
Test System: AMES SALMONELLA TYPHIMURIUM, Strain/Indicator: TA100, Metabolic Activation: HAMSTER, LIVER, S-9, AROCLOR 1254, Method: STANDARD PLATE
  mutagenic call: inactive; negative
[3]
  mutagenic call: inactive; negative
[4]
  mutagenic call: inactive; negative
Test System: AMES SALMONELLA TYPHIMURIUM, Strain/Indicator: TA100, Metabolic Activation: RAT, LIVER, S-9, AROCLOR 1254 (5 OR 30%), Method: PREINCUBATION
  mutagenic call: inactive; negative
Test System: AMES SALMONELLA TYPHIMURIUM, Strain/Indicator: TA100, Metabolic Activation: RAT, LIVER, S-9, AROCLOR 1254 (10%), Method: PREINCUBATION
  mutagenic call: inactive; negative
Test System: AMES SALMONELLA TYPHIMURIUM, Strain/Indicator: TA100, Metabolic Activation: RAT, LIVER, S-9, AROCLOR 1254, Method: STANDARD PLATE
  mutagenic call: inactive; negative
Test System: AMES SALMONELLA TYPHIMURIUM, Strain/Indicator: TA1535, Metabolic Activation: HAMSTER, LIVER, S-9, AROCLOR 1254 (10%), Method: PREINCUBATION
  mutagenic call: inactive; negative
Test System: AMES SALMONELLA TYPHIMURIUM, Strain/Indicator: TA1535, Metabolic Activation: HAMSTER, LIVER, S-9, AROCLOR 1254, Method: STANDARD PLATE
  mutagenic call: inactive; negative
[5]
  mutagenic call: inactive; negative
Test System: AMES SALMONELLA TYPHIMURIUM, Strain/Indicator: TA1535, Metabolic Activation: NONE, Method: STANDARD PLATE
  mutagenic call: inactive; negative
Test System: AMES SALMONELLA TYPHIMURIUM, Strain/Indicator: TA1535, Metabolic Activation: RAT, LIVER, S-9, AROCLOR 1254 (10%), Method: PREINCUBATION
  mutagenic call: inactive; negative
Test System: AMES SALMONELLA TYPHIMURIUM, Strain/Indicator: TA1535, Metabolic Activation: RAT, LIVER, S-9, AROCLOR 1254, Method: STANDARD PLATE
  mutagenic call: inactive; negative
Test System: AMES SALMONELLA TYPHIMURIUM, Strain/Indicator: TA1537, Metabolic Activation: HAMSTER, LIVER, S-9, AROCLOR 1254 (5, 10 OR 30%), Method: PREINCUBATION
  mutagenic call: inactive; negative
Test System: AMES SALMONELLA TYPHIMURIUM, Strain/Indicator: TA1537, Metabolic Activation: HAMSTER, LIVER, S-9, AROCLOR 1254, Method: STANDARD PLATE
  mutagenic call: inactive; negative
Test System: AMES SALMONELLA TYPHIMURIUM, Strain/Indicator: TA1537, Metabolic Activation: NONE, Method: STANDARD PLATE
  mutagenic call: inactive; negative
Test System: AMES SALMONELLA TYPHIMURIUM, Strain/Indicator: TA1537, Metabolic Activation: RAT, LIVER, S-9, AROCLOR 1254 (5, 10 OR 30%), Method: PREINCUBATION
  mutagenic call: inactive; negative
Test System: AMES SALMONELLA TYPHIMURIUM, Strain/Indicator: TA1537, Metabolic Activation: RAT, LIVER, S-9, AROCLOR 1254, Method: STANDARD PLATE
  mutagenic call: inactive; negative
Test System: AMES SALMONELLA TYPHIMURIUM, Strain/Indicator: TA1538, Metabolic Activation: HAMSTER, LIVER, S-9, AROCLOR 1254, Method: STANDARD PLATE
  mutagenic call: inactive; negative
Test System: AMES SALMONELLA TYPHIMURIUM, Strain/Indicator: TA1538, Metabolic Activation: NONE, Method: STANDARD PLATE
  mutagenic call: inactive; negative
Test System: AMES SALMONELLA TYPHIMURIUM, Strain/Indicator: TA1538, Metabolic Activation: RAT, LIVER, S-9, AROCLOR 1254, Method: STANDARD PLATE
  mutagenic call: inactive; negative
Test System: MOUSE LYMPHOMA, Strain/Indicator: L5178Y (TK+/TK-), Metabolic Activation: NONE, Method: SUSPENSION/PLATE
  mutagenic call: active; positive. reevaluation of results: positive
Test System: MOUSE LYMPHOMA, Strain/Indicator: L5178Y (TK+/TK-), Metabolic Activation: RAT, LIVER, S-9, AROCLOR 1254, Method: SUSPENSION/PLATE
  mutagenic call: active; positive. reevaluation of results: positive

## [N-]=[N+]=NC[C@H]1O[C@H](O)[C@H](O)[C@H](O)[C@@H]1O
[2]
  mutagenic call: inactive; negative
[4]
  mutagenic call: active; positive

## OC[C@@H](O)[C@@H](O[C@@H]1O[C@H](CO)[C@H](O)[C@H](O)[C@H]1O)[C@H](O)[C@@H](O)CO
[1]
  mutagenic call: inactive; negative
Test System: AMES SALMONELLA TYPHIMURIUM, Strain/Indicator: TA98, Metabolic Activation: RAT, LIVER, S-9, PHENOBARBITAL AND 5,6-BENZOFLAVONE, Method: PREINCUBATION
  mutagenic call: inactive; negative
[3]
  mutagenic call: inactive; negative
Test System: AMES SALMONELLA TYPHIMURIUM, Strain/Indicator: TA100, Metabolic Activation: RAT, LIVER, S-9, PHENOBARBITAL AND 5,6-BENZOFLAVONE, Method: PREINCUBATION
  mutagenic call: inactive; negative
[5]
  mutagenic call: inactive; negative
Test System: AMES SALMONELLA TYPHIMURIUM, Strain/Indicator: TA1535, Metabolic Activation: RAT, LIVER, S-9, PHENOBARBITAL AND 5,6-BENZOFLAVONE, Method: PREINCUBATION
  mutagenic call: inactive; negative
Test System: AMES SALMONELLA TYPHIMURIUM, Strain/Indicator: TA1537, Metabolic Activation: NONE, Method: PREINCUBATION
  mutagenic call: inactive; negative
Test System: AMES SALMONELLA TYPHIMURIUM, Strain/Indicator: TA1537, Metabolic Activation: RAT, LIVER, S-9, PHENOBARBITAL AND 5,6-BENZOFLAVONE, Method: PREINCUBATION
  mutagenic call: inactive; negative
Test System: E. COLI, Strain/Indicator: WP2 UVRA, Metabolic Activation: NONE, Method: PREINCUBATION
  mutagenic call: inactive; negative
Test System: E. COLI, Strain/Indicator: WP2 UVRA, Metabolic Activation: RAT, LIVER, S-9, PHENOBARBITAL AND 5,6-BENZOFLAVONE, Method: PREINCUBATION
  mutagenic call: inactive; negative

## N#Cc1cccc(/C=C/c2ccc([N+](=O)[O-])cc2)c1
Test System: AMES SALMONELLA TYPHIMURIUM, Strain/Indicator: TA98(NR), Metabolic Activation: NONE, Method: STANDARD PLATE
  mutagenic call: active; positive
Test System: AMES SALMONELLA TYPHIMURIUM, Strain/Indicator: TA98 (NR), Metabolic Activation: S-9, Method: STANDARD PLATE
  mutagenic call: active; positive
[2]
  mutagenic call: active; positive
Test System: AMES SALMONELLA TYPHIMURIUM, Strain/Indicator: TA98, Metabolic Activation: S-9, Method: STANDARD PLATE
  mutagenic call: active; positive
Test System: AMES SALMONELLA TYPHIMURIUM, Strain/Indicator: TA100 (NR), Metabolic Activation: NONE, Method: STANDARD PLATE
  mutagenic call: inactive; negative
Test System: AMES SALMONELLA TYPHIMURIUM, Strain/Indicator: TA100(NR), Metabolic Activation: S-9, Method: STANDARD PLATE
  mutagenic call: inactive; negative
[4]
  mutagenic call: active; positive
Test System: AMES SALMONELLA TYPHIMURIUM, Strain/Indicator: TA100, Metabolic Activation: S-9, Method: STANDARD PLATE
  mutagenic call: active; positive
